“And” between values parts separate entries of the source, which are not always exact repeats. Equal values may be shown once.

87 compounds from ChEMBL document CHEMBL1122107, “Structure-antitumor activity relationships of 9-anilinoacridines using pattern recognition” (1982) can be followed below.

In this assay the test system is L1210. Description: Tumor cell selectivity determined as maximal percent increase in life span (ILSmax) at LD10 dosage level in L1210 cells. It is filed as functional, Mus musculus.
`COc1cccc2c(Nc3ccc(NS(C)(=O)=O)cc3)c3ccc(N)cc3nc12` had an ILSmax of 100%.

`O=S(=O)(Cc1ccc(Nc2c3ccccc3nc3ccccc23)cc1)Nc1ccccn1` yielded an ILSmax of 98%.

`COc1ccc2nc3cc(NC(C)=O)ccc3c(Nc3ccc(NS(C)(=O)=O)cc3)c2c1` displayed an ILSmax of 25%.

Turning to `CCOC(=O)N1CCN(C(=O)Nc2ccc(Nc3c4ccccc4nc4ccccc34)cc2)CC1`, the ILSmax is listed as 50%.

Consider `CS(=O)(=O)N1CCN(c2ccc(Nc3c4ccccc4nc4ccccc34)cc2)CC1`, for which the ILSmax was found to be 70%.

Compound `NS(=O)(=O)c1ccccc1Nc1c2ccccc2nc2ccccc12` registered an ILSmax of 25%.

Turning to `CCCCCCS(=O)(=O)Nc1ccc(Nc2c3ccccc3nc3c(C(N)=O)cccc23)c(OC)c1`, the ILSmax is on record as 87%.

`O=C(O)CCCCCCCc1ccc(Nc2c3ccccc3nc3ccccc23)cc1` displayed an ILSmax of 75%.

On to `CS(=O)(=O)Nc1ccc(N=c2c3ccccc3[nH]c3cc([N+](=O)[O-])ccc23)cn1`, for which the ILSmax is listed as 72%.

For the compound `O=C(O)c1ccc(S(=O)(=O)Nc2ccc(Nc3c4ccccc4nc4ccccc34)cc2)cc1`, the ILSmax is reported as 135%.

`CS(=O)(=O)Nc1ccc(Nc2c3ccccc3nc3cc(N)ccc23)cc1` had an ILSmax of 134%.

In turn, `CC(=O)Nc1ccc2c(Nc3ccc(NS(C)(=O)=O)cc3)c3ccc([N+](=O)[O-])cc3nc2c1` registered an ILSmax of 141%.

`Cc1cccc2c(Nc3ccc(NS(C)(=O)=O)cc3)c3ccc(N)cc3nc12` returned an ILSmax of 110%.

Compound `CS(=O)(=O)Nc1ccc(Nc2c3ccccc3nc3ccccc23)c(Cl)c1` displayed an ILSmax of 25%.

As to `CCS(=O)(=O)Nc1ccc(Nc2c3ccccc3nc3cc(NC(C)=O)ccc23)cc1`, the ILSmax was found to be 115%.

In turn, `CS(=O)(=O)Nc1ccc(Nc2c3ccccc3nc3cc(NC(=O)/C=C/c4ccccc4)ccc23)cc1` gave an ILSmax of 25%.

The compound `COc1ccc2nc3cc([N+](=O)[O-])ccc3c(Nc3ccc(NS(C)(=O)=O)cc3)c2c1` returned an ILSmax of 55%.

Turning to `CCc1ccc2c(Nc3ccc(NS(C)(=O)=O)cc3OC)c3ccccc3nc2c1`, the ILSmax is 123%.

Compound `COc1ccc2c(Nc3ccc(NS(C)(=O)=O)cc3)c3ccc(OC)cc3nc2c1` returned an ILSmax of 56%.

`CCN(CC)/N=N/c1ccc2c(Nc3ccc(NS(C)(=O)=O)cc3)c3ccccc3nc2c1` registered an ILSmax of 95%.

`CC(=O)Nc1ccc2c(Nc3ccc(NS(C)(=O)=O)cc3)c3ccc(Cl)cc3nc2c1` displayed an ILSmax of 60%.

In turn, `CCCCCCNc1ccc(Nc2c3ccccc3nc3ccccc23)cc1` returned an ILSmax of 25%.

`CCS(=O)(=O)Nc1ccc(Nc2c3ccccc3nc3cc(C)ccc23)cc1` showed an ILSmax of 84%.

Compound `NCc1ccc(Nc2c3ccccc3nc3ccccc23)cc1` had an ILSmax of 25%.

`COc1cc(NS(C)(=O)=O)ccc1Nc1c2ccc(C)cc2nc2c(OC)cccc12` came in with an ILSmax of 72%.

In turn, `NC(Cc1ccc(NC(=O)Nc2ccc(N=c3c4ccccc4[nH]c4cc([N+](=O)[O-])ccc34)cc2)cc1)C(=O)O` (configuration not stated) showed an ILSmax of 80%.

Consider `COc1cc(NS(C)(=O)=O)ccc1Nc1c2ccccc2nc2ccccc12` [AMSACRINE], for which the ILSmax is reported as 111%.

As for `COc1cc(NS(C)(=O)=O)ccc1Nc1c2ccccc2nc2cc(Cl)ccc12`, the ILSmax was determined as 99%.

Turning to `CCNc1ccc(Nc2c3ccccc3nc3ccccc23)cc1`, the ILSmax is 52%.

Compound `CCS(=O)(=O)Nc1ccc(Nc2c3ccccc3nc3c(C(N)=O)cccc23)c(OC)c1` displayed an ILSmax of 166%.

On to `N=C(N)Nc1ccc(NC(=O)Nc2ccc(N=c3c4ccccc4[nH]c4cc([N+](=O)[O-])ccc34)cc2)cc1`, for which the ILSmax worked out at 200%.

Regarding `NCCCCCS(=O)(=O)Nc1ccc(Nc2c3ccccc3nc3ccccc23)cc1`, the ILSmax is given as 25%.

With `CCCCS(=O)(=O)Nc1ccc(Nc2c3ccccc3nc3cc([N+](=O)[O-])ccc23)cc1`, the ILSmax was found to be 110%.

In turn, `CCCCS(=O)(=O)Nc1ccc(Nc2c3ccccc3nc3c(OC)cccc23)c(OC)c1` registered an ILSmax of 63%.

For the compound `CC(=O)Nc1ccc2c(=Nc3ccc(CCC(=O)O)cc3)c3ccccc3[nH]c2c1`, the ILSmax was determined as 25%.

Turning to `Cc1ccc2c(Nc3ccc(NS(C)(=O)=O)cc3)c3ccc([N+](=O)[O-])cc3nc2c1`, the ILSmax was 170%.

Turning to `CCCCCC(=O)Nc1ccc(Nc2c3ccccc3nc3ccccc23)cc1`, the ILSmax came out at 110%.

As for `Nc1ccc(S(=O)(=O)Nc2ccc(Nc3c4ccccc4nc4cc(Cl)ccc34)cc2)cc1`, the ILSmax stood at 50%.

Regarding `O=C(O)CCCCCCCCCc1ccc(Nc2c3ccccc3nc3ccccc23)cc1`, the ILSmax is on record as 75%.

Take `CCCNC(=O)c1ccc(Nc2c3ccccc3nc3ccccc23)cc1`: the ILSmax amounted to 25%.

Turning to `CS(=O)(=O)Nc1ccccc1Nc1c2ccccc2nc2ccccc12`, the ILSmax was found to be 25%.

For `CCCCOc1cccc2c(Nc3ccc(NS(=O)(=O)CCC)cc3OC)c3ccccc3nc12`, the ILSmax is on record as 80%.

`COc1cc(NS(C)(=O)=O)ccc1Nc1c2ccccc2nc2c(C(=O)NCC(O)CO)cccc12` (configuration not stated) came in with an ILSmax of 83%.

For `Cc1ccc2nc3ccccc3c(Nc3ccc(NS(C)(=O)=O)cc3)c2c1`, the ILSmax is 25%.

`CN(c1ccccc1Nc1c2ccccc2nc2ccccc12)S(C)(=O)=O` came in with an ILSmax of 25%.

In turn, `NC(=O)CCCCCCCCc1ccc(Nc2c3ccccc3nc3ccccc23)cc1` returned an ILSmax of 26%.

In turn, `CCCCCNS(=O)(=O)c1ccc(N=c2c3ccccc3[nH]c3cc(N)ccc23)cc1` displayed an ILSmax of 50%.

For `COc1cc(NS(C)(=O)=O)ccc1Nc1c2ccccc2nc2cc(C(F)(F)F)c(N)cc12`, the ILSmax is 90%.

The compound `CCCC(=O)N(c1ccc(Nc2c3ccc([N+](=O)[O-])cc3nc3c(C)cccc23)cc1)S(C)(=O)=O` came in with an ILSmax of 85%.

Take `COc1ccc2c(Nc3ccc(NS(C)(=O)=O)cc3)c3cccc(C)c3nc2c1`: the ILSmax was 75%.

The compound `N=C(N)NCCCCS(=O)(=O)Nc1ccc(Nc2c3ccccc3nc3cc(Cl)ccc23)cc1` had an ILSmax of 25%.

As for `CS(=O)(=O)Nc1ccc(Nc2c3ccccc3nc3c(N)cccc23)cc1`, the ILSmax amounted to 100%.

In the case of `Nc1ccc2c(=Nc3ccc(S(N)(=O)=O)cc3)c3ccc(N)cc3[nH]c2c1`, the ILSmax came out at 60%.

`COc1cc(NS(C)(=O)=O)ccc1Nc1c2ccccc2nc2c(OCCO)cccc12`: the ILSmax was 105%.

In turn, `O=C(Cc1ccccc1)Nc1ccc(Nc2c3ccccc3nc3ccccc23)cc1` returned an ILSmax of 25%.

The compound `COc1ccc2nc3cc(Cl)ccc3c(Nc3ccc(NS(C)(=O)=O)cc3OC)c2c1` had an ILSmax of 25%.

`Nc1ccc(Nc2c3ccccc3nc3cc([N+](=O)[O-])ccc23)cc1`: the ILSmax was found to be 30%.

In turn, `CNc1ccc2c(Nc3ccc(NS(C)(=O)=O)cc3)c3cccc(C)c3nc2c1` came in with an ILSmax of 170%.

`CCC(=O)N(c1ccc(Nc2c3ccc([N+](=O)[O-])cc3nc3c(C)cccc23)c(OC)c1)S(C)(=O)=O` registered an ILSmax of 72%.

Take `CCCCCCS(=O)(=O)Nc1ccc(Nc2c3ccccc3nc3ccccc23)c(OC)c1`: the ILSmax stood at 66%.

Regarding `COc1cc(NS(C)(=O)=O)ccc1N=c1c2ccccc2[nH]c2ccc(C(C)(C)C)cc12`, the ILSmax is on record as 25%.

In turn, `Cc1cc(NS(C)(=O)=O)ccc1Nc1c2ccccc2nc2c(C(N)=O)cccc12` registered an ILSmax of 68%.

`Cc1cc(NS(C)(=O)=O)ccc1Nc1c2ccc([N+](=O)[O-])cc2nc2c(C)c(C)ccc12` returned an ILSmax of 60%.

`CN(c1ccc(N=c2c3ccccc3[nH]c3cc(N)ccc23)cc1)S(C)(=O)=O` showed an ILSmax of 100%.

`COc1cccc(Nc2c3ccccc3nc3ccccc23)c1` gave an ILSmax of 25%.

For the compound `CCS(=O)(=O)Nc1ccc(Nc2c3ccccc3nc3c(C)cccc23)c(OC)c1`, the ILSmax came to 76%.

In the case of `COc1cc(N)ccc1Nc1c2ccccc2nc2ccccc12`, the ILSmax is 25% and 66%.

`CC(=O)Nc1ccc2c(Nc3ccc(NS(=O)(=O)CCCNC(=N)N)cc3)c3ccc([N+](=O)[O-])cc3nc2c1`: the ILSmax came to 160%.

Take `NC(=O)CCCCCc1ccc(Nc2c3ccccc3nc3ccccc23)cc1`: the ILSmax stood at 97%.

In turn, `CCCCCS(=O)(=O)Nc1ccc(Nc2c3ccccc3nc3c(C(=O)NCCCC)cccc23)c(OC)c1` had an ILSmax of 45%.

`COC(=O)N(c1ccc(Nc2c3ccccc3nc3cc(NC(C)=O)ccc23)cc1)S(C)(=O)=O`: the ILSmax amounted to 125%.

As to `CC(=O)c1ccc(N=c2c3ccccc3[nH]c3cc(N)ccc23)cc1`, the ILSmax is on record as 52%.

`O=C(O)c1ccc(/C=C/c2ccc(Nc3c4ccccc4nc4ccccc34)cc2)cc1` yielded an ILSmax of 158%.

In the case of `CCCCS(=O)(=O)Nc1ccc(Nc2c3ccccc3nc3cc(NC(C)=O)ccc23)cc1`, the ILSmax is 83%.

For `CCOC(=O)NNc1ccc(Nc2c3ccccc3nc3ccccc23)cc1`, the ILSmax is given as 75%.

`Cc1ccc2c(Nc3ccc(NS(C)(=O)=O)cc3)c3ccc(N)cc3nc2c1C` gave an ILSmax of 110%.

For the compound `CCOc1ccccc1Nc1c2ccccc2nc2ccccc12`, the ILSmax worked out at 25%.

Take `COc1cc(NS(C)(=O)=O)ccc1N=c1c2ccccc2[nH]c2ccc(C(N)=O)cc12`: the ILSmax is listed as 25%.

Take `O=C(O)/C=C\c1ccccc1Nc1c2ccccc2nc2ccccc12`: the ILSmax is listed as 25%.

`Nc1ccc(Nc2c3ccccc3nc3ccccc23)cc1` had an ILSmax of 25%.

Compound `CCCN(C)/N=N/c1ccc2c(Nc3ccc(NS(C)(=O)=O)cc3)c3ccccc3nc2c1` gave an ILSmax of 98%.

For `CCc1ccc2c(Nc3ccc(CC(=O)O)cc3)c3ccccc3nc2c1`, the ILSmax was 200%.

With `Nc1ccc2c(Nc3ccc(C(=O)O)cc3)c3ccccc3nc2c1`, the ILSmax is 25%.

As to `CCCCCCC(=O)N(c1ccc(Nc2c3ccccc3nc3cc(NC(C)=O)ccc23)cc1)S(C)(=O)=O`, the ILSmax was 100%.

Take `O=C(O)COc1ccc(Nc2c3ccccc3nc3ccccc23)cc1`: the ILSmax is given as 25%.

For `COc1ccc2[nH]c3ccccc3c(=Nc3ccc(NS(C)(=O)=O)cc3OC)c2c1`, the ILSmax is recorded as 35%.

Consider `CCCCNC(=O)c1cccc2c(Nc3ccc(NS(C)(=O)=O)cc3OC)c3ccccc3nc12`, for which the ILSmax is reported as 95%.
